# Molecular target: T1, GPR120 (Homo sapiens, UniProt Q5NUL3)
# T1 construct: expressed in transfected cells; host or cells: CHO mitoPhotinaGPR120 cells
# T1 sequence (Q5NUL3 1-361): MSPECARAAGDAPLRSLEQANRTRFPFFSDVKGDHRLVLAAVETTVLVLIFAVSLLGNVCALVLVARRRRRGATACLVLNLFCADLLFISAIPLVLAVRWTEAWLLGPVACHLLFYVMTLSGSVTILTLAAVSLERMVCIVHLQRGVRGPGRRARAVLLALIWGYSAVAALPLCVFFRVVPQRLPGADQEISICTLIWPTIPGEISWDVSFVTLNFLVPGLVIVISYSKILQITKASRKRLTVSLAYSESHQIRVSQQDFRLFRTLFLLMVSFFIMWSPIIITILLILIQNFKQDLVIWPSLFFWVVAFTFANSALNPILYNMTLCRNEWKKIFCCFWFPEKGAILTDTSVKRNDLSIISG
# Assay: GPR120 agonism in CHO mitoPhotinaGPR120 cell based assay with fluorescent (Fluo-8 calcium, FLIPRTetra) readout, Agonist Mode, dose response
# Settings: CHO mitoPhotinaGPR120 cells, Fluo-8 No Wash Ca2+ dye, dose response in quadruplicate, 0.0033% fatty acid free BSA
# Method: Compounds of the invention were tested for GPR120 agonism in a CHO mitoPhotinaGPR120 cell based assay with fluorescent readout in Agonist Mode in dose response in quadruplicate with intra-plate modality.
# Twenty (20) h after seeding, growth medium was manually removed and cells were starved in the presence of 25 μL/w of Standard Tyrode's Buffer. After 3 h, cells were loaded with 20 μL/w of 0.5× Fluo-8 No Wash (AAT Bioquest, Inc.) Ca2+ sensitive dye prepared in Standard Tyrode's Buffer. Cells were incubated for 1 h at room temperature in the dark. Ten (10) μL/w 3× of controls and compounds were diluted in Standard Tyrode's Buffer+0.01% fatty acid free BSA (final concentration=0.0033%) and injected at the FLIPRTetra®, recording the kinetic calcium traces for 3 minutes. Standard Tyrode's buffer composition: 5 mM KCl, 130 mM NaCl, 2 mM CaCl2), 5 mM NaHCO3, 1 mM MgCl2, 20 mM HEPES, pH7.4.
row,Structure (SMILES),EC50 [µM]
1,"COc1ccc(Cn2nc(C)c(C#N)c2COc2ccc(CCO)cc2)cc1 [Example 91, 5-[[4-(2-hydroxyethyl)phenoxy]methyl]-1-[(4-methoxyphenyl)methyl]-3-methyl-pyrazole-4-carbonitrile]",16.5
2,"Cc1ccc(-n2nc(C)c(C#N)c2COc2ccc(CCO)cc2)cc1 [Example 74, 5-[[4-(2-hydroxyethyl)phenoxy]methyl]-3-methyl-1-(p-tolyl)pyrazole-4-carbonitrile]",0.49
3,"COCCc1ccc(OCc2c(C#N)c(C)nn2-c2ccccc2)cc1 [Example 56, 5-[[4-(2-methoxyethyl)phenoxy]methyl]-3-methyl-1-phenyl-pyrazole-4-carbonitrile]",5
4,"Cc1nn(-c2ccccc2)c(COCc2ccc(C#N)cc2)c1C#N [Example 97, 5-[(4-cyanophenyl)methoxymethyl]-3-methyl-1-phenyl-pyrazole-4-carbonitrile]",2.8
5,"Cc1nn(C2CCCC2)c(COc2ccc(CCO)cc2)c1C#N [Example 117, 1-cyclopentyl-5-[[4-(2-hydroxyethyl)phenoxy]methyl]-3-methyl-pyrazole-4-carbonitrile]",1.2
6,"Cc1nn(-c2ccc(Cl)cc2)c(COc2ccc(CCO)cc2)c1C#N [Example 76, 1-(4-chlorophenyl)-5-[[4-(2-hydroxyethyl)phenoxy]methyl]-3-methyl-pyrazole-4-carbonitrile]",0.76
7,"Cc1nn(-c2ccccc2)c(COc2ccc(F)cc2)c1C#N [Example 18, 5-[(4-fluorophenoxy)methyl]-3-methyl-1-phenyl-pyrazole-4-carbonitrile]",1.41
8,"Cc1nn(Cc2ccccc2)c(COc2ccc(CCO)cc2)c1C#N [Example 88, 1-benzyl-5-[[4-(2-hydroxyethyl)phenoxy]methyl]-3-methyl-pyrazole-4-carbonitrile]",11.2
9,"Cc1nn(-c2ccccc2)c(COc2ccc(CCO)cc2F)c1C#N [Example 33, 5-[[2-fluoro-4-(2-hydroxyethyl)phenoxy]methyl]-3-methyl-1-phenyl-pyrazole-4-carbonitrile]",1.27
10,"Cc1nn(-c2ccc(F)cc2)c(COc2ccc(CCO)cc2)c1C#N [Example 84, 1-(4-fluorophenyl)-5-[[4-(2-hydroxyethyl)phenoxy]methyl]-3-methyl-pyrazole-4-carbonitrile]",1.54
11,"Cc1nn(-c2ncccn2)c(COc2ccc(CCO)cc2)c1C#N [Example 105, 5-[[4-(2-hydroxyethyl)phenoxy]methyl]-3-methyl-1-pyrimidin-2-yl-pyrazole-4-carbonitrile]",12.6
12,"Cc1ccc(OCc2c(C#N)c(C)nn2-c2ccccc2)cc1 [Example 4, 3-methyl-5-[(4-methylphenoxy)methyl]-1-phenyl-pyrazole-4-carbonitrile]",1.67
13,"Cc1nn(-c2ccccn2)c(COc2c(F)cc(CCCO)cc2F)c1C#N [Example 158, 5-[[2,6-difluoro-4-(3-hydroxypropyl)phenoxy]methyl]-3-methyl-1-(2-pyridyl)pyrazole-4-carbonitrile]",0.13
14,"Cc1nn(-c2ccccc2)c(C(F)(F)Oc2ccc(CCO)cc2)c1C#N [Example 94, 5-[difluoro-[4-(2-hydroxyethyl)phenoxy]methyl]-3-methyl-1-phenyl-pyrazole-4-carbonitrile]",1.35
15,"Cc1nn(-c2ccccc2)c(COc2c(F)cc(CC(C)CO)cc2F)c1C#N (racemic) [Example 43, 5-[[2,6-difluoro-4-(3-hydroxy-2-methyl-propyl)phenoxy]methyl]-3-methyl-1-phenyl-pyrazole-4-carbonitrile]",0.45
16,"Cc1nn(-c2ccccc2)c(COc2ccc(F)nc2F)c1C#N [Example 71, 5-[(2,6-difluoro-3-pyridyl)oxymethyl]-3-methyl-1-phenyl-pyrazole-4-carbonitrile]",5.69
17,"Cc1nn(-c2ccccc2)c(COc2ccc(CC(=O)NCCO)cc2)c1C#N [Example 49, 2-[4-[(4-cyano-5-methyl-2-phenyl-pyrazol-3-yl)methoxy]phenyl]-~{N}-(2-hydroxyethyl)acetamide]",18.4
18,"Cc1ccc(-n2nc(C)c(C#N)c2COc2ccc(CCCO)cc2)cc1 [Example 150, 5-[[4-(3-hydroxypropyl)phenoxy]methyl]-3-methyl-1-(p-tolyl)pyrazole-4-carbonitrile]",0.15
19,"Cc1nn(-c2ccc(Cl)cc2)c(COc2c(F)cc(CCCO)cc2F)c1C#N [Example 162, 1-(4-chlorophenyl)-5-[[2,6-difluoro-4-(3-hydroxypropyl)phenoxy]methyl]-3-methyl-pyrazole-4-carbonitrile]",0.43
20,"Cc1nn(-c2cccc(Cl)c2)c(COc2ccc(CCO)cc2)c1C#N [Example 75, 1-(3-chlorophenyl)-5-[[4-(2-hydroxyethyl)phenoxy]methyl]-3-methyl-pyrazole-4-carbonitrile]",4.61
21,"Cc1nn(C2CCCC2)c(COc2ccc(CCCO)cc2)c1C#N [Example 153, 1-cyclopentyl-5-[[4-(3-hydroxypropyl)phenoxy]methyl]-3-methyl-pyrazole-4-carbonitrile]",0.18
22,"Cc1nn(-c2ccc(F)cc2)c(COc2ccc(CCCO)cc2)c1C#N [Example 87, 1-(4-fluorophenyl)-5-[[4-(3-hydroxypropyl)phenoxy]methyl]-3-methyl-pyrazole-4-carbonitrile]",0.18
23,"Cc1nn(-c2ccccc2)c(COc2cccc3cccnc23)c1C#N [Example 63, 3-methyl-1-phenyl-5-(8-quinolyloxymethyl)pyrazole-4-carbonitrile]",16.4
24,"Cc1nn(-c2ccccc2)c(COc2ccc(CCC3CCNCC3)cc2)c1C#N [Example 136, 3-methyl-1-phenyl-5-[[4-[2-(4-piperidyl)ethyl]phenoxy]methyl]pyrazole-4-carbonitrile]",17.7

# Further compounds by falling EC50, results first:
row,EC50 [µM],Structure (SMILES)
1,10.2,"Cc1nn(-c2c(F)cccc2F)c(COc2ccc(CCO)cc2)c1C#N [Example 112, 1-(2,6-difluorophenyl)-5-[[4-(2-hydroxyethyl)phenoxy]methyl]-3-methyl-pyrazole-4-carbonitrile]"
2,9.9,"Cc1nn(-c2ccc(F)cc2)c(COCc2ccccc2)c1C#N [Example 98, 5-(benzyloxymethyl)-1-(4-fluorophenyl)-3-methyl-pyrazole-4-carbonitrile]"
3,8.32,"Cc1ccncc1OCc1c(C#N)c(C)nn1-c1ccccc1 [Example 68, 3-methyl-5-[(4-methyl-3-pyridyl)oxymethyl]-1-phenyl-pyrazole-4-carbonitrile]"
4,3.56,"Cc1nn(-c2ccccc2)c(COc2cccnc2F)c1C#N [Example 65, 5-[(2-fluoro-3-pyridyl)oxymethyl]-3-methyl-1-phenyl-pyrazole-4-carbonitrile]"
5,3.36,"Cc1nn(-c2ccccc2)c(COc2ccc(-c3nc(CO)cs3)cc2)c1C#N [Example 146, 5-[[4-[4-(hydroxymethyl)thiazol-2-yl]phenoxy]methyl]-3-methyl-1-phenyl-pyrazole-4-carbonitrile]"
6,3.33,"N#Cc1cnn(-c2ccccc2)c1COc1ccc(CCO)cc1 [Example 129, 5-[[4-(2-hydroxyethyl)phenoxy]methyl]-1-phenyl-pyrazole-4-carbonitrile]"
7,2.22,"Cc1nn(-c2ccc(F)cc2)c(COc2ccccc2)c1C#N [Example 83, 1-(4-fluorophenyl)-3-methyl-5-(phenoxymethyl)pyrazole-4-carbonitrile]"
8,1.63,"Cc1nn(-c2ccc(Cl)nn2)c(COc2ccc(CCO)cc2)c1C#N [Example 116, 1-(6-chloropyridazin-3-yl)-5-[[4-(2-hydroxyethyl)phenoxy]methyl]-3-methyl-pyrazole-4-carbonitrile]"
9,0.51,"Cc1nn(-c2ccc(Cl)cc2)c(COc2ccc(CCCO)cc2)c1C#N [Example 152, 1-(4-chlorophenyl)-5-[[4-(3-hydroxypropyl)phenoxy]methyl]-3-methyl-pyrazole-4-carbonitrile]"
10,0.49,"Cc1nn(-c2ccccc2)c(COc2ccc(CCCO)cc2F)c1C#N [Example 42, 5-[[2-fluoro-4-(3-hydroxypropyl)phenoxy]methyl]-3-methyl-1-phenyl-pyrazole-4-carbonitrile]"
11,0.23,"COc1ccc(-n2nc(C)c(C#N)c2COc2c(F)cc(CCCO)cc2F)cc1 [Example 161, 5-[[2,6-difluoro-4-(3-hydroxypropyl)phenoxy]methyl]-1-(4-methoxyphenyl)-3-methyl-pyrazole-4-carbonitrile]"
12,0.19,"Cc1ccc(-n2nc(C)c(C#N)c2COc2c(F)cc(CCCO)cc2F)cc1 [Example 159, 5-[[2,6-difluoro-4-(3-hydroxypropyl)phenoxy]methyl]-3-methyl-1-(p-tolyl)pyrazole-4-carbonitrile]"
13,0.09,"Cc1nn(-c2ccccc2)c(COc2c(F)cc(CCCO)cc2F)c1C#N [Example 32, 5-[[2,6-difluoro-4-(3-hydroxypropyl)phenoxy]methyl]-3-methyl-1-phenyl-pyrazole-4-carbonitrile]"
